How the values were obtained:
[1] = biological target: T1, yeast Gal4-DNA binding domain fused to the ligand binding domain of human RORγ (Homo sapiens, UniProt P51449); test: RORγ Reporter Assay (Gal4); assay type: cell-based; conditions: values given as lower bounds of ranges; for Gal4 activity range @ 0.1 μM (% inhibition): RORγ Reporter Assay (Gal4) at 0.1 μM; for Gal4 activity range @ 1 μM (% inhibition): RORγ Reporter Assay (Gal4) at 1 μM
T1 construct: host or cells: HEK293t
T1 sequence (P51449 269-508 limits assumed): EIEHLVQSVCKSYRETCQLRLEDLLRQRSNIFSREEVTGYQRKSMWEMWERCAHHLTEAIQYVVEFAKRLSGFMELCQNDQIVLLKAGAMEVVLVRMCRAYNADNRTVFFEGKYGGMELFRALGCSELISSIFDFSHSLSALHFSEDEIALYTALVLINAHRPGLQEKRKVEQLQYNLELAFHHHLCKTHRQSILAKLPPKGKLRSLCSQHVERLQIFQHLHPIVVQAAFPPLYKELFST
How it was run: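 Compound at final 1,000 or 100 nM (0.1% DMSO, triplicate) was added to the transfected HEK293t cells carrying a Gal4-UAS luciferase reporter for 24 h at 37 °C, 10% charcoal-stripped FBS. Activity reduction expressed as percent of vehicle-only luciferase signal.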

[2] = biological target: T2, human RORγt (Ligand Binding Domain) (Homo sapiens, UniProt P51449); test: Fluorescence Polarization (FP) Assay; conditions: Fluorescence Polarization (FP) Assay; values given as upper bounds of activity ranges; read-out: FP activity range
T2 construct: purchased Crelux (Planegg, Germany) batch no PC5032-1
T2 sequence (P51449 269-508 limits assumed): T1 sequence (P51449 269-508 limits assumed)
How it was run: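 Binding to the ligand pocket followed by fluorescence polarization with a TAMRA-tagged RORγt ligand probe of 910 g/mole. Negative control wells received DMSO only.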

Compound: Fc1c(NC[C@H]2CC[C@H](Cc3nnn[nH]3)CC2)ncnc1N1CCOC[C@@H]1c1ccc(C(F)(F)F)cc1 [Example 288, 5-fluoro-N-[[4-(1H-tetrazol-5-ylmethyl)cyclohexyl]methyl]-6-[(3S)-3-[4-(trifluoromethyl)phenyl]morpholin-4-yl]pyrimidin-4-amine]
- Gal4 activity range @ 0.1 μM (% inhibition) [1]: >80 % inhibition
- Gal4 activity range @ 1 μM (% inhibition) [1]: >80 % inhibition
- IC50 [2]: < 0.5 µM

Compound: CS(=O)(=O)N1CCC(Cn2ccc3c(N4CCOC[C@@H]4c4ccc(OC(F)(F)F)cc4)ncnc32)CC1 [Example 290, (3S)-4-[7-[(1-methylsulfonyl-4-piperidyl)methyl]pyrrolo[2,3-d]pyrimidin-4-yl]-3-[4-(trifluoromethoxy)phenyl] morpholine]
- Gal4 activity range @ 0.1 μM (% inhibition) [1]: >50 % inhibition
- Gal4 activity range @ 1 μM (% inhibition) [1]: >80 % inhibition
- IC50 [2]: < 0.5 µM

Compound: O=S(=O)(Nc1ccc(CNc2ncnc(N3CCOC[C@@H]3c3ccc(C(F)(F)F)cc3)c2F)cc1)C(F)(F)F [Example 291, 1,1,1-trifluoro-N-[4-[[[5-fluoro-6-[(3S)-3-[4-(trifluoromethyl)phenyl]morpholin-4-yl]pyrimidin-4-yl]amino]methyl]phenyl] methanesulfonamide]
- Gal4 activity range @ 0.1 μM (% inhibition) [1]: >0 % inhibition
- Gal4 activity range @ 1 μM (% inhibition) [1]: >50 % inhibition
- IC50 [2]: < 1 µM

Compound: N#CNC(=O)Cc1ccc(CNc2ncnc(N3CCOCC3c3ccc(C(F)(F)F)cc3)c2F)cc1 (stereo not drawn) [Example 292, N-cyano-2-[4-[[[5-fluoro-6-[3-[4-(trifluoromethyl)phenyl]morpholin-4-yl]pyrimidin-4-yl]amino]methyl]phenyl]acetamide]
- Gal4 activity range @ 0.1 μM (% inhibition) [1]: >0 % inhibition
- Gal4 activity range @ 1 μM (% inhibition) [1]: >20 % inhibition
- IC50 [2]: < 0.5 µM

Compound: CC1(CNc2ncnc(N3CCOC[C@@H]3c3ccc(C(F)(F)F)cc3)c2F)CCCCC1O (stereo partly drawn) [Example 295, 2-[[[5-fluoro-6-[(3S)-3-[4-(trifluoromethyl)phenyl]morpholin-4-yl]pyrimidin-4-yl]amino]methyl]-2-methyl-cyclohexanol]
- Gal4 activity range @ 0.1 μM (% inhibition) [1]: >20 % inhibition
- Gal4 activity range @ 1 μM (% inhibition) [1]: >80 % inhibition
- IC50 [2]: < 0.5 µM

Compound: NC(=O)Cc1ccc(CNc2ncnc(N3CCCC3c3ccc4c(c3)OCO4)c2F)cc1 (stereo not drawn) [Example 299, 2-[4-[[[6-[2-(1,3-benzodioxol-5-yl)pyrrolidin-1-yl]-5-fluoro-pyrimidin-4-yl]amino]methyl]phenyl]acetamide]
- Gal4 activity range @ 0.1 μM (% inhibition) [1]: >0 % inhibition
- Gal4 activity range @ 1 μM (% inhibition) [1]: >80 % inhibition
- IC50 [2]: < 1 µM

Compound: NC(=O)Cc1ccc(CNc2ncnc(N3CCCC3c3ccc(O)cc3)c2F)cc1 (stereo not drawn) [Example 300, 2-[4-[[[5-fluoro-6-[2-(4-hydroxyphenyl)pyrrolidin-1-yl]pyrimidin-4-yl]amino]methyl]phenyl]acetamide]
- Gal4 activity range @ 0.1 μM (% inhibition) [1]: >20 % inhibition
- Gal4 activity range @ 1 μM (% inhibition) [1]: >20 % inhibition
- IC50 [2]: < 10 µM

Compound: CCOc1ccc(C2CCCN2c2ncnc(NCc3ccc(CC(N)=O)cc3)c2F)cc1 (stereo not drawn) [Example 301, 2-[4-[[[6-[2-(4-ethoxyphenyl)pyrrolidin-1-yl]-5-fluoro-pyrimidin-4-yl]amino]methyl]phenyl]acetamide]
- Gal4 activity range @ 0.1 μM (% inhibition) [1]: >50 % inhibition
- Gal4 activity range @ 1 μM (% inhibition) [1]: >80 % inhibition
- IC50 [2]: < 0.5 µM

Compound: Cc1ccc(C2CCCN2c2ncnc(NCc3ccc(CC(N)=O)cc3)c2F)cc1 (stereo not drawn) [Example 302, 2-[4-[[[5-fluoro-6-[2-(p-tolyl)pyrrolidin-1-yl]pyrimidin-4-yl]amino]methyl]phenyl]acetamide]
- Gal4 activity range @ 0.1 μM (% inhibition) [1]: >20 % inhibition
- Gal4 activity range @ 1 μM (% inhibition) [1]: >50 % inhibition
- IC50 [2]: < 0.5 µM

Compound: CC(C)c1ccc(C2CCCN2c2ncnc(NCc3ccc(CC(N)=O)cc3)c2F)cc1 (stereo not drawn) [Example 303, 2-[4-[[[5-fluoro-6-[2-(4-isopropylphenyl)pyrrolidin-1-yl]pyrimidin-4-yl]amino]methyl]phenyl]acetamide]
- Gal4 activity range @ 0.1 μM (% inhibition) [1]: >80 % inhibition
- Gal4 activity range @ 1 μM (% inhibition) [1]: >80 % inhibition
- IC50 [2]: < 0.5 µM

Compound: COc1cccc(C2CCCN2c2ncnc(NCc3ccc(CC(N)=O)cc3)c2F)c1 (stereo not drawn) [Example 304, 2-[4-[[[5-fluoro-6-[2-(3-methoxyphenyl)pyrrolidin-1-yl]pyrimidin-4-yl]amino]methyl]phenyl]acetamide]
- Gal4 activity range @ 0.1 μM (% inhibition) [1]: >20 % inhibition
- Gal4 activity range @ 1 μM (% inhibition) [1]: >80 % inhibition
- IC50 [2]: < 0.5 µM

Compound: NC(=O)Cc1ccc(CNc2ncnc(N3CCCC3c3cccc(Br)c3)c2F)cc1 (stereo not drawn) [Example 305, 2-[4-[[[6-[2-(3-bromophenyl)pyrrolidin-1-yl]-5-fluoro-pyrimidin-4-yl]amino]methyl]phenyl]acetamide]
- Gal4 activity range @ 0.1 μM (% inhibition) [1]: >50 % inhibition
- Gal4 activity range @ 1 μM (% inhibition) [1]: >80 % inhibition
- IC50 [2]: < 0.5 µM

Compound: NC(=O)Cc1ccc(CNc2ncnc(N3CCCC3c3cccc(Cl)c3)c2F)cc1 (stereo not drawn) [Example 306, 2-[4-[[[6-[2-(3-chlorophenyl)pyrrolidin-1-yl]-5-fluoro-pyrimidin-4-yl]amino]methyl]phenyl]acetamide]
- Gal4 activity range @ 0.1 μM (% inhibition) [1]: >50 % inhibition
- Gal4 activity range @ 1 μM (% inhibition) [1]: >80 % inhibition
- IC50 [2]: < 0.5 µM

Compound: NC(=O)Cc1ccc(CNc2ncnc(N3CCC3c3ccc(C(F)(F)F)cc3)c2F)cc1 (stereo not drawn) [Example 307, 2-[4-[[[5-fluoro-6-[2-[4-(trifluoromethyl)phenyl]azetidin-1-yl]pyrimidin-4-yl]amino]methyl]phenyl]acetamide]
- Gal4 activity range @ 0.1 μM (% inhibition) [1]: >20 % inhibition
- Gal4 activity range @ 1 μM (% inhibition) [1]: >50 % inhibition
- IC50 [2]: < 2 µM

Compound: NC(=O)Cc1ccc(CNc2ncnc(N3CCCCC3c3ccc(C(F)(F)F)cc3)c2F)cc1 (stereo not drawn) [Example 308, 2-[4-[[[5-fluoro-6-[2-[4-(trifluoromethyl)phenyl]-1-piperidyl]pyrimidin-4-yl]amino]methyl]phenyl]acetamide]
- Gal4 activity range @ 0.1 μM (% inhibition) [1]: >20 % inhibition
- Gal4 activity range @ 1 μM (% inhibition) [1]: >50 % inhibition
- IC50 [2]: < 10 µM

Compound: Cc1ccc(C2CCCN2c2ncnc(NCc3ccc(CC(N)=O)cc3)c2F)o1 (stereo not drawn) [Example 313, 2-[4-[[[5-fluoro-6-[2-(5-methyl-2-furyl)pyrrolidin-1-yl]pyrimidin-4-yl]amino]methyl]phenyl]acetamide]
- Gal4 activity range @ 0.1 μM (% inhibition) [1]: >20 % inhibition
- Gal4 activity range @ 1 μM (% inhibition) [1]: >80 % inhibition
- IC50 [2]: < 0.5 µM

— patent US10689383B2, “Optionally fused heterocyclyl-substituted derivatives of pyrimidine useful for the treatment of inflammatory, metabolic, oncologic and autoimmune diseases” (NUEVOLUTION A/S, priority 2014, dated 2020)
